Assay results: publication PMC12000511, “Molecular basis for the assembly of the Vps5-Vps17 SNX-BAR proteins with Retromer” (Nature Communications, 2025)
Where no end group is shown, it is not given here.

Columns and labels:
ctRetromer = ctRetromer (Thermochaetoides thermophila, UniProt G0RZB5+G0S709); assay: ITC, binding to ctRetromer; set-up: species or system Chaetomium thermophilum; conditions: ITC 25 °C, pH 7.5, 200 mM NaCl
Experimental: (§1) All the bacterial constructs were expressed in BL21(DE3) competent cells using standard isopropyl 1-thio-β-D-galactopyranoside induction or autoinduction method as described previously[39],[72],[73]. To obtain the Retromer trimer complex, the GST-tagged Vps29 and Vps35 co-expressed cell pellet were mixed with His-Vps26 and resuspended in lysis buffer containing 50 mM Tris-HCl pH 7.5, 200 mM NaCl, 5% glycerol, 50 μg/ml benzamidine and DNase I before passed through a Constant System TS-Series cell disruptor. […] For all constructs, the lysate was clarified by centrifugation and the supernatant was loaded onto either Talon® resin (Clonetech) or glutathione sepharose (GE healthcare) for initial purification. To obtain the correct stoichiometry ratio of the Retromer complex, both Talon® resin and glutathione sepharose (GE healthcare) were applied. […] The flow-through containing complex was further purified using size-exclusion chromatography (SEC) equilibrated with a buffer containing 50 mM Tris-HCl pH 7.5, 200 mM NaCl, 2 mM β-ME. […] To avoid the non-specific cleavage by the residual proteases such as thrombin, a tablet of protease inhibitor cocktail was added into the complex mixture. To remove the unbound fractions, the complex mixture was further purified using Superose 6 increase 10/300 GL column using the SEC buffer described above.
In brief, the clarified lysate was loaded onto glutathione sepharose (GE healthcare) and eluted using elution buffer containing 50 mM Tris-HCl pH 7.5, 200 mM NaCl, 5% glycerol, 20 mM glutathione reduced and 50 μg/ml benzamidine. The flow-through was further purified using SEC as the final purification step. To avoid the degradation, the constructs containing N-terminal disordered parts of Vps5 and Vps17 were used in fresh and experiments were finished within 3 days after purification.
(§2) All the proteins used for ITC experiments were prepared in buffer containing 50 mM Tris-HCl pH 7.5, 200 mM NaCl, 2 mM β-ME. […] In all cases, the ITC titration sequence consisted of an initial 0.4 μl (not used in data processing) followed by 12 serial injections of 3.22 μl each with 180 s intervals. The resulting titration data were integrated with Malvern software package by fitting and normalized data to a single-site binding model, yielding the thermodynamic parameters Kd, ∆H, ∆G and −T∆S for all binding experiments. The stoichiometry was refined initially, and if the value was close to 1, then N was set to exactly 1.0 for calculation. Data presented are the mean of triplicate titrations for each experiment.

mVps29 [1] = target: T1, mVps29 (Mus musculus, UniProt Q9QZ88); assay: ITC, binding to mVps29; conditions: ITC 25 °C, pH 7.5; mean of triplicate titrations
T1 construct: GST (thrombin site) (N, cleaved yes); made in house; host or cells: E. coli BL21(DE3)
Experimental: as §1, §2

mVps29 [2] = target: T1, mVps29; assay: Crystal structure of mVPS29–ctVps5_71–80 peptide complex; conditions: 1.7 Å, two molecules in asymmetric unit
Experimental: All crystals were grown by the hanging-drop vapor diffusion method at 20 °C. […] Best quality crystals were obtained by mixing 1 µL of protein with 1 µL of well solution containing 40 mM KH2PO4, 16% PEG8000 and 5% glycerol at room temperature. Crystals grew after 13 days were cryoprotected in reservoir solution with additional 16% glycerol. X-ray diffraction data were carried out at the Australian Synchrotron MX2 beamline at 100 K.
Data collected from the Australian Synchrotron were indexed and integrated by AutoXDS and scaled using Aimless (version 0.7.4)[75]. Both structures were solved by molecular replacement using Phaser (version 2.5.6)[76] with native mVps29 structure as the initial model template. Both structures contain two copies of mVps29 in asymmetric unit with the electron density of peptide clearly visible. The refinement was performed using Phenix (version 1.19.2) with inspection of resulting model in Coot (version 0.8.9.2) guided by Fo–Fc difference maps[77]. Molprobity was used to evaluate the quality geometry of the refined structure. Molecular figures were generated using PyMOL (version 2.5.5) and structural comparison was performed using DALI and Foldseek[79],[80]. Sequence conservation was mapped on the structure with ConSurf server.

ctRetromer, sequence (G0RZB5 entry or part of it): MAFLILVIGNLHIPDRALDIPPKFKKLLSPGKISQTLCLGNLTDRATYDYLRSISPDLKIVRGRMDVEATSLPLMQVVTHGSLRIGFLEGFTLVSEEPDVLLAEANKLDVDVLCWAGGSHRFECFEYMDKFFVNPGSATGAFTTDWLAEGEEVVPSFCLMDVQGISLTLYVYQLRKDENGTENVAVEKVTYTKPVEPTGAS
ctRetromer, sequence (G0S709 entry or part of it): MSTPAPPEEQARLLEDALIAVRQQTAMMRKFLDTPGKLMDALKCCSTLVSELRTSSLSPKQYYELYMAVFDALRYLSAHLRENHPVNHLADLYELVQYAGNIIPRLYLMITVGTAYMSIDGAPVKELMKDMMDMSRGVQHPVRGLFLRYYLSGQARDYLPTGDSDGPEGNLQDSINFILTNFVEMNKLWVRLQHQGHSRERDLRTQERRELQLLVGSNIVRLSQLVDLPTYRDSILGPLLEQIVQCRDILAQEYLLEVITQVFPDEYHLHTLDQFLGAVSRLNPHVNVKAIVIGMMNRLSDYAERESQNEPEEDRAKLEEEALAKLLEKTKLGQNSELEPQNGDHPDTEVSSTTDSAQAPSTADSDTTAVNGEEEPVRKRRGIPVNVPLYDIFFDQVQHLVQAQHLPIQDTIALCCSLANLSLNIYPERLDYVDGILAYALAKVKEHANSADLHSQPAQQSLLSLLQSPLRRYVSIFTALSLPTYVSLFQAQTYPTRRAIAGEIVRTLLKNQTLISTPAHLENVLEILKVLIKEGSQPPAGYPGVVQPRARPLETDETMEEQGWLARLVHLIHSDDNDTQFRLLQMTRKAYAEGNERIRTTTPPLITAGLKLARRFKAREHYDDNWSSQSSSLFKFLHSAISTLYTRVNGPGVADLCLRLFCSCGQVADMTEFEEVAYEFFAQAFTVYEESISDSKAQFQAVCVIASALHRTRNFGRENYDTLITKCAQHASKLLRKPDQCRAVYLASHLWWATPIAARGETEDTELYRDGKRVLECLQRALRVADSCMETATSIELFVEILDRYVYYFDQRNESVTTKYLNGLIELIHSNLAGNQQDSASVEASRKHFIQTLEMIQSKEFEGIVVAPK
ctRetromer, sequence (G0S0E6 entry or part of it, further chain): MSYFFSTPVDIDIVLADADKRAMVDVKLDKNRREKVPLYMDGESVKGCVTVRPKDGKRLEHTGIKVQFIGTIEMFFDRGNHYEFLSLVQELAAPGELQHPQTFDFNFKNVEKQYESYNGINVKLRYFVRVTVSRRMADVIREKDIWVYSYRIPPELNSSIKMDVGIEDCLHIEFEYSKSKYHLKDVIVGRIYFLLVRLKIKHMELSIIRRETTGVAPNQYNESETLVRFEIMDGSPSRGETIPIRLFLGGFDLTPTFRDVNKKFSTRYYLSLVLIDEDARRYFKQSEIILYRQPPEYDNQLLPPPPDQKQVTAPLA

Sequence: DDPLGPLGA [ctVps5_71–80 peptide]
- binding to ctRetromer (ctRetromer): very weak binding
- ΔG (mVps29 [1]): -5.80 ± 0.10 kcal/mol
- ΔH (mVps29 [1]): -8.00 ± 1.10 kcal/mol
- binding site on VPS29 (mVps29 [2]): binds to the conserved hydrophobic groove of VPS29
